From patent publication US20050267067A1, “Radical reaction inhibitors, method for inhibition of radical reactions, and use thereof” (priority 2002, published 2005) come the findings set out here.

Data set [1] deals with low density lipoprotein (LDL). Kind of data set: Oxidation of low density lipoprotein (LDL) by AAPH, absorbance at 234 nm. Particulars: for Absorbance at a wavelength of 234 nm Average: 120 min after initiating the reaction. In kind it is biochemical. As for the experimental part: An experiment for examining the influence of cyclotetrasaccharide on the oxidation inhibition for low density lipoprotein (LDL) was conducted as follows: Two and half milliliters of 0.5 mg/ml of a low density lipoprotein (LDL) in phosphate buffered saline (PBS, pH 7.4) was mixed with 2.5 ml of 100 mM PBS solution containing any one of the crystalline cyclotetrasaccharide pentahydrate, crystalline cyclotetrasaccharide monohydrate, and anhydrous crystalline cyclotetrasaccharide, which had been prepared in Experiment 1-1, in PBS or 2.5 ml of PBS free of cyclotetrasaccharide. The resulting mixture was admixed with 50 μl of 100 mM 2,2′-azo-bis(2-amidinopropane)dihydrochloride (AAPH) in PBS (pH 7.4) and reacted at 37° C. The reaction was continued for 240 min to examine changes on time course. […] In Table 2, the results for crystalline cyclotetrasaccharide pentahydrate are only shown because crystalline cyclotetrasaccharide pentahydrate, crystalline cyclotetrasaccharide monohydrate, and anhydrous crystalline cyclotetrasaccharide gave similar results. Also, the influence of cyclotetrasaccharide on the oxidation of a low density lipoprotein (LDL) by AAPH was examined by mixing a 2.5 ml solution containing 0.5 mg/ml of a low density lipoprotein (LDL) in PBS with 2.5 ml of a PBS solution in which the crystalline cyclotetrasaccharide pentahydrate, prepared in Experiment 1-1, had been dissolved to give a concentration of 2 mM, 10 mM or 20 mM, or 2.5 ml of PBS with no cyclotetrasaccharide; and measuring for absorbance at a wavelength of 234 nm for each of the resulting mixtures similarly as above.

A further data set relates to sucrase. Kind of data set: Sucrase activity of rat small intestinal mucosal enzyme solution after AAPH oxidation. In kind it is biochemical. As for the experimental part:
One milliliter of the above rat small intestinal mucosal enzyme solution, one milliliter of a 100 mM AAPH solution, one milliliter of a 50 mM phosphate buffer (pH 7.2), and one milliliter of a 400 mM of the crystalline cyclotetrasaccharide pentahydrate prepared in Experiment 1-1 were mixed, incubated at 37° C. for two hours, and measured for the activities of sucrase and maltase.
After incubated at 37° C. for 30 min, the mixture was quantified for free glucose by the GOD method.

In another data set the test system is maltase. Kind of data set: Maltase activity of rat small intestinal mucosal enzyme solution after AAPH oxidation. It is filed as biochemical. How it is done: One milliliter of the above rat small intestinal mucosal enzyme solution, one milliliter of a 100 mM AAPH solution, one milliliter of a 50 mM phosphate buffer (pH 7.2), and one milliliter of a 400 mM of the crystalline cyclotetrasaccharide pentahydrate prepared in Experiment 1-1 were mixed, incubated at 37° C. for two hours, and measured for the activities of sucrase and maltase. […] To a half milliliter of a maltose solution, which had been prepared by dissolving maltose in 50 mM sodium maleate (pH 6.6) to give a concentration of one percent (%), 0.05 ml of a AAPH-rat small intestinal mucosal enzyme solution. After incubated at 37° C. for 30 min, the mixture was quantified for free glucose by the GOD method. One unit (U) activity of maltase was defined as an enzyme amount that releases two micromoles of glucose per minutes from maltose at 37° C.

Data set [2] can be described thus: Preservation of vitamin D3 tablets at 60° C., absorbance at 265 nm. Particulars: for Amount of vitamin D3: per one gram of vitamin D3 tablet. It is filed as physicochemical. As for the experimental part: Vitamin D3 (cholecalciferol), as vitamin D, commercialized by Wako Pure Chemical Industries Ltd., Tokyo, Japan, was dissolved in ethanol with the highest purity, commercialized by Katayama Chemical Industries Co., Ltd., Osaka, Japan, to make into an ethanol solution with a vitamin D3 content of 3%. To eight grams of the powdery anhydrous cyclotetrasaccharide, prepared in Example 3, was added 1.5 ml of the above ethanol solution and the resulting mixture was pulverized similarly as in Example 20, dried under a reduced pressure, and made into a powdery vitamin D3 preparation containing cyclotetrasaccharide. […] About 0.3 gram each of the powdery vitamin D3 preparations containing any one of the above saccharides was made into a vitamin D3 tablet by pressurizing at 200 kg/cm^2 for two minutes using a tablet machine. Vitamin D3 tablets thus obtained were weighted and each one tablet of which was placed in a 20 ml-glass vial and sealed to obtain five kinds of vitamin D3 tablets containing a saccharide. The vials were preserved under a normal pressure at 60° C. and the amount of vitamin D3 remaining in the vials was examined just after preparation, after preserving for two hours, one day, two days, and seven days, respectively. The amount of vitamin D3 in each tablet was determined by: adding 10 ml of 70% aqueous ethanol solution to each vial containing any of the test samples; crushing the tablets using a glass rod before extracting vitamin D3; filling up the total volume to 50 ml with 70% aqueous ethanol solution; centrifuging the resulting solutions at 10,000 rpm for 10 minutes; filtrating the resulting supernatants; and measuring the absorbance at a wavelength of 265 nm for the resulting filtrates. The amount of vitamin D3 was calculated based on the absorbance coefficient (E1%) at a wavelength of 265 nm, which was regarded as 475. The amount of vitamin D3 (mg) per one gram of each of the vitamin D3 tablets and the residual vitamin D3 (%) was calculated based on the amount of vitamin D3 in the test samples just after preparation, which was regarded as 100%. The results are in Table

Where [3] appears, read: enzyme solution incubated with AAPH at 37° C. for two hours, with or without cyclotetrasaccharide.
Where [4] appears, read: versus system with no AAPH, 37° C., two hours.
Setting [5] is: just after its preparation (regarded as 100%).

For the compound `OCC1OC2OCC3O[C@H](O[C@H]4C(O)C(CO)OC(OCC5O[C@H](O[C@@H](C1O)C2O)C(O)C(O)[C@@H]5O)C4O)C(O)C(O)[C@@H]3O` (stereo partly drawn) [Cyclotetrasaccharide, cyclo{→6}-α-D-glucopyranosyl-(1→3)-α-D-glucopyranosyl-(1→6)-α-D-glucopyranosyl-(1→3)-α-D-glucopyranosyl-(1→}], the “Formation percentage (%) of LDL oxide” value in data set [1] (1 mM cyclotetrasaccharide, 120 min) stood at 76%; in data set [1] (5 mM cyclotetrasaccharide, 120 min), 35%; in data set [1] (50 mM cyclotetrasaccharide, 30 min, versus system with no cyclotetrasaccharide), 14%; in data set [1] (50 mM cyclotetrasaccharide, 60 min, versus system with no cyclotetrasaccharide), 20%; in data set [1] (50 mM cyclotetrasaccharide, 120 min, versus system with no cyclotetrasaccharide), 21%; in data set [1] (50 mM cyclotetrasaccharide, 180 min, versus system with no cyclotetrasaccharide), 23%. Further, the “Absorbance at a wavelength of 234 nm Average” value in data set [1] (1 mM cyclotetrasaccharide) is given as 0.163; in data set [1] (5 mM cyclotetrasaccharide), 0.076; in data set [1] (10 mM cyclotetrasaccharide), 0.028. Moreover, the “Absorbance at a wavelength of 234 nm” value in data set [1] (50 mM cyclotetrasaccharide, 0 min after adding AAPH) is recorded as 0.0; in data set [1] (50 mM cyclotetrasaccharide, 30 min after adding AAPH), 0.018; in data set [1] (50 mM cyclotetrasaccharide, 60 min after adding AAPH), 0.042; in data set [1] (50 mM cyclotetrasaccharide, 120 min after adding AAPH), 0.046; in data set [1] (50 mM cyclotetrasaccharide, 180 min after adding AAPH) it was 0.056; in data set [1] (50 mM cyclotetrasaccharide, 240 min after adding AAPH), 0.064. The Sucrase activity in the data set with sucrase (setting [3]) turned out to be 0.0105 u/mg-protein. In addition, the “Sucrase Relative residual activity (%)” value with sucrase (setting [4]) is on record as “(72) %”. This compound showed a Maltase activity in the data set with maltase (setting [3]) of 0.0669 u/mg-protein. Also, in the data set with maltase (setting [4]), the “Maltase Relative residual activity (%)” value is given as “(85) %”. Besides, the “Residual D3 percentage (%)” value is listed as “(100) %” in data set [2] (setting [5]); “(66) %” in data set [2] (one day at 60° C.); “(50) %” in data set [2] (seven days at 60° C.); 90% in data set [2] (seven days at 60° C., listed as cyclotetrasaccharide); “(55) %” in data set [2] (two days at 60° C.); “(87) %” in data set [2] (two hours at 60° C.). Moreover, the “Amount of vitamin D3” value in data set [2] (just after its preparation) worked out at 5.27 mg; in data set [2] (one day at 60° C.) it was 3.49 mg; in data set [2] (seven days at 60° C.) it was 2.65 mg; in data set [2] (two days at 60° C.), 2.91 mg; in data set [2] (two hours at 60° C.) it was 4.57 mg.

On to `OC[C@H]1O[C@H](O[C@H]2O[C@H](CO)[C@@H](O)[C@H](O)[C@H]2O)[C@H](O)[C@@H](O)[C@@H]1O` [α, α-Trehalose, α, α-trehalose, reference compound], for which the “Residual D3 percentage (%)” value in data set [2] (setting [5]) is “(100) %”; in data set [2] (one day at 60° C.), “(24) %”; in data set [2] (seven days at 60° C.) it was “(22) %”; in data set [2] (two days at 60° C.) it was “(22) %”; in data set [2] (two hours at 60° C.), “(34) %”. Also, the “Amount of vitamin D3” value in data set [2] (just after its preparation) came to 4.67 mg; in data set [2] (one day at 60° C.) it was 1.11 mg; in data set [2] (seven days at 60° C.), 1.05 mg; in data set [2] (two days at 60° C.), 1.02 mg; in data set [2] (two hours at 60° C.), 1.58 mg.
